Values after ≈ are worked out from the molar mass of the structure shown. Where a name gives a salt, the structure may show the parent alone. Read-outs that look alike come from different tables or passages of the source.
Legend:
Type in all cases: cell-based
[1] = test system: Staphylococcus aureus NRS384 (MRSA); assay: Broth microdilution MIC, S. aureus NRS384 (MRSA); design: MIC NRS 384 (MRSA): unit not given here; conditions: broth microdilution, 37° C., 20 hours; for MIC: Staphylococcus aureus, read-out: MIC NRS 384 (MRSA)
Outline: (§1)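 Two-fold dilutions from 64 to 0.0625 μg/ml final, 1% DMSO, were inoculated at ~5.0×10^5 cfu/ml in the strain's test medium and kept 20 h at 37 °C in ambient atmosphere. Colonies were grown on MHA, with S. pneumoniae on blood agar under 5% CO2.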

[2] = test system: Staphylococcus aureus ATCC 29213 (MSSA); assay: Broth microdilution MIC, S. aureus ATCC 29213 (MSSA); conditions: read-out: MIC S. aureus ATCC 29213 (MSSA)
Outline: as §1

[3] = test system: Enterococcus faecalis ATCC 29212; assay: Broth microdilution MIC, E. faecalis ATCC 29212; conditions: read-out: MIC E. faecalis ATCC 29212
Outline: as §1

[4] = test system: Enterococcus faecium ATCC 700221 (VRE); assay: Broth microdilution MIC, E. faecium ATCC 700221 (VRE); design: MIC E. faecium ATCC 700221 (VRE): unit: ug/mL; conditions: broth microdilution, 37° C., 20 hours; for MIC: Enterococcus faecium, read-out: MIC E. faecium ATCC 700221 (VRE)
Outline: as §1

[5] = test system: Streptococcus pneumoniae ATCC 49619; assay: Broth microdilution MIC, S. pneumoniae ATCC 49619; conditions: read-out: MIC S. pneumoniae ATCC 49619
Outline: as §1

[6] = test system: Bacillus subtilis ATCC 6633; assay: Broth microdilution MIC, B. subtilis ATCC 6633; conditions: read-out: MIC B. subtilis ATCC 6633
Outline: as §1

[7] = test system: Escherichia coli ATCC 25922; assay: Broth microdilution MIC, E. coli ATCC 25922 (MHIIB w & w/o 4 mM EDTA); conditions: for MIC: Escherichia coli, read-out: MIC E. coli ATCC 25922; for MIC E. coli ATCC 25922 + 4 mM EDTA: with 4 mM EDTA
Outline: as §1

[8] = broth microdilution, 37° C., 20 hours
[9] = ATCC29212, broth microdilution, 37° C., 20 hours
[10] = ATCC49619, broth microdilution, 37° C., 20 hours
[11] = ATCC6633, broth microdilution, 37° C., 20 hours
[12] = ATCC25922, without EDTA, broth microdilution, 37° C., 20 hours

Row | SMILES | MIC [1] | MIC [2, 8] | MIC [3, 9] | MIC [4] | MIC [5, 10] | MIC [6, 11] | MIC [7, 12] | MIC E. coli ATCC 25922 + 4 mM EDTA [7, 8] | MIC NRS 384 (MRSA) [1] | MIC ([2]; 20 h) | MIC ([3]; ATCC29212, 20 h) | MIC E. faecium ATCC 700221 (VRE) [4] | MIC ([5]; ATCC49619, 20 h) | MIC ([6]; ATCC6633, 20 h) | MIC ([7]; ATCC25922, 20 h) | MIC ([1]; S. aureus NRS 384)
1 | COCC(CN(C)C)OCCn1ncc2nc(NCc3ccc(Cl)c(Cl)c3)[nH]c(=O)c21.Cl (stereo not drawn) [Compound 183, 5-((3,4-dichlorobenzyl)amino)-1-(2-((1-(dimethylamino)-3-methoxypropan-2-yl)oxy)ethyl)-1H-pyrazolo[4,3-d]pyrimidin-7(6H)-one hydrochloride] | 64 µg/mL | 64 µg/mL | 32 µg/mL | 32 µg/mL | 8 µg/mL | 8 µg/mL | > 64 µg/mL | >64 µg/mL | – | – | – | – | – | – | – | –
2 | O=C(CCCCn1ncc2nc(NCc3ccc(Cl)c(Cl)c3)[nH]c(=O)c21)NO [Compound 217, 5-[5-[(3,4-dichlorophenyl)methylamino]-7-oxo-6H-pyrazolo[4,3-d]pyrimidin-1-yl]pentanehydroxamic acid] | 32 µg/mL (≈ 75.2 µM) | 32 µg/mL (≈ 75.2 µM) | 16 µg/mL (≈ 37.6 µM) | 16 µg/mL (≈ 37.6 µM) | 4 µg/mL (≈ 9.41 µM) | 8 µg/mL (≈ 18.8 µM) | > 64 µg/mL | >64 µg/mL | – | – | – | – | – | – | – | –
3 | O=c1[nH]c(NCc2ccc(Cl)c(Cl)c2)nc2cnn(CC3CCCN3c3ccccn3)c12 (stereo not drawn) [Compound 182, 5-((3,4-dichlorobenzyl)amino)-1-((1-(pyridin-2-yl)pyrrolidin-2-yl)methyl)-1H-pyrazolo[4,3-d]pyrimidin-7(6H)-one dihydrochloride] | – | – | – | – | – | – | – | >64 µg/mL | 4/8 | 4 µg/mL | 8 µg/mL | 4/2 | 8 µg/mL | 2 µg/mL | > 64 µg/mL | –
4 | O=c1[nH]c(NCc2ccc(Cl)c(Cl)c2)nc2cnn(C3CCOC3)c12 (stereo not drawn) [Compound 119, 5-((3,4-Dichlorobenzyl)amino)-1-(tetrahydrofuran-3-yl)-1H-pyrazolo[4,3-d]pyrimidin-7(6H)-one] | 4 µg/mL (≈ 10.5 µM) | 2 µg/mL (≈ 5.26 µM) | 4 µg/mL (≈ 10.5 µM) | 2 µg/mL (≈ 5.26 µM) | 4 µg/mL (≈ 10.5 µM) | 1 µg/mL (≈ 2.63 µM) | > 64 µg/mL | >64 µg/mL | – | – | – | – | – | – | – | –
5 | CN(CCn1ncc2nc(NCc3ccc(Cl)c(Cl)c3)[nH]c(=O)c21)C(=O)c1cc(Cl)nnc1Cl [Compound 85, 3,6-dichloro-N-(2-(5-((3,4-dichlorobenzyl)amino)-7-oxo-6,7-dihydro-1H-pyrazolo[4,3-d]pyrimidin-1-yl)ethyl)-N-methylpyridazine-4-carboxamide] | 8 µg/mL (≈ 14.8 µM) | 8 µg/mL (≈ 14.8 µM) | 8 µg/mL (≈ 14.8 µM) | 4 µg/mL (≈ 7.38 µM) | 8 µg/mL (≈ 14.8 µM) | 4 µg/mL (≈ 7.38 µM) | > 64 µg/mL | 16 µg/mL | – | – | – | – | – | – | – | –
6 | Cl.O=c1[nH]c(NCc2ccc(Cl)c(Cl)c2)nc2cnn(Cc3cccnc3)c12 [Compound 113, 5-[(3,4-Dichlorophenyl)methylamino]-1-(3-pyridylmethyl)-6H-pyrazolo[4,3-d]pyrimidin-7-one] | – | 4 µg/mL | 8 µg/mL | – | 8 µg/mL | 1 µg/mL | > 64 µg/mL | >64 µg/mL | 4/4 | – | – | 2/2 | – | – | – | –
7 | O=c1[nH]c(NCc2ccc(Cl)c(Cl)c2)nc2cnn(CCCOCCO)c12 [Compound 169, 5-[(3,4-dichlorophenyl)methylamino]-1-[3-(2-hydroxyethoxy)propyl]-6H-pyrazolo[4,3-d]pyrimidin-7-one] | 8 µg/mL (≈ 19.4 µM) | 8 µg/mL (≈ 19.4 µM) | 8 µg/mL (≈ 19.4 µM) | 4 µg/mL (≈ 9.7 µM) | 8 µg/mL (≈ 19.4 µM) | 2 µg/mL (≈ 4.85 µM) | > 64 µg/mL | >64 µg/mL | – | – | – | – | – | – | – | –
8 | Cn1ncc2nc(NCc3ccc(F)c(F)c3)[nH]c(=O)c21 [Compound 7, 5-((3,4-Difluorobenzyl)amino)-1-methyl-1H-pyrazolo[4,3-d]pyrimidin-7(6H)-one] | 16 µg/mL (≈ 54.9 µM) | 16 µg/mL (≈ 54.9 µM) | 16 µg/mL (≈ 54.9 µM) | 8 µg/mL (≈ 27.5 µM) | 8 µg/mL (≈ 27.5 µM) | 8 µg/mL (≈ 27.5 µM) | > 64 µg/mL | >64 µg/mL | – | – | – | – | – | – | – | –
9 | Cl.O=c1[nH]c(NCc2ccc(Cl)c(Cl)c2)nc2cnn(CCc3ccccn3)c12 [Compound 111, 5-((3,4-Dichlorobenzyl)amino)-1-(2-(pyridin-2-yl)ethyl)-1H-pyrazolo[4,3-d]pyrimidin-7(6H)-one hydrochloride] | – | 4 µg/mL | 8 µg/mL | – | 4 µg/mL | 1 µg/mL | > 64 µg/mL | >64 µg/mL | 2/2 | – | – | 2/2 | – | – | – | –
10 | O=C(c1cccnc1)N1CCC(n2nc(Cl)c3nc(NCc4ccc(Cl)c(Cl)c4)[nH]c(=O)c32)CC1 [Compound 318, 3-Chloro-5-[(3,4-dichlorophenyl)methylamino]-1-[1-(pyridine-3-carbonyl)-4-piperidyl]-6H-pyrazolo[4,3-d]pyrimidin-7-one] | – | 2 µg/mL (≈ 3.75 µM) | 2 µg/mL (≈ 3.75 µM) | 1 µg/mL (≈ 1.88 µM) | 4 µg/mL (≈ 7.51 µM) | 1 µg/mL (≈ 1.88 µM) | > 64 µg/mL | >64 µg/mL | – | – | – | – | – | – | – | 2 µg/mL (≈ 3.75 µM)
11 | CC(C)(C)OC(=O)N1CCC(n2ncc3nc(NCc4ccc(Cl)c(Cl)c4)[nH]c(=O)c32)CC1 [Compound 153, Tert-butyl 4-(5-((3,4-dichlorobenzyl)amino)-7-oxo-6,7-dihydro-1H-pyrazolo[4,3-d]pyrimidin-1-yl)piperidine-1-carboxylate] | 4 µg/mL (≈ 8.11 µM) | 8 µg/mL (≈ 16.2 µM) | 4 µg/mL (≈ 8.11 µM) | 2 µg/mL (≈ 4.05 µM) | 16 µg/mL (≈ 32.4 µM) | 2 µg/mL (≈ 4.05 µM) | > 64 µg/mL | – | – | – | – | – | – | – | – | –
12 | CCOCCc1nn(C)c2c(=O)[nH]c(NCc3ccc(Cl)c(Cl)c3)nc12 [Compound 49, 5-((3,4-dichlorobenzyl)amino)-3-(2-ethoxyethyl)-1-methyl-1H-pyrazolo[4,3-d]pyrimidin-7(6H)-one] | 8 µg/mL (≈ 20.2 µM) | 16 µg/mL (≈ 40.4 µM) | > 64 µg/mL | 16 µg/mL (≈ 40.4 µM) | 16 µg/mL (≈ 40.4 µM) | 8 µg/mL (≈ 20.2 µM) | > 64 µg/mL | >64 µg/mL | – | – | – | – | – | – | – | –
13 | Cl.Cl.O=c1[nH]c(NCc2ccc(Cl)c(Cl)c2)nc2cnn(C3CCN(Cc4cccnc4)CC3)c12 [Compound 245, 5-((3,4-Dichlorobenzyl)amino)-1-(1-(pyridin-3-ylmethyl)piperidin-4-yl)-1H-pyrazolo[4,3-d]pyrimidin-7(6H)-one dihydrochloride] | 2 µg/mL | 2 µg/mL | 4 µg/mL | 1 µg/mL | 2 µg/mL | 1 µg/mL | > 64 µg/mL | 32 µg/mL | – | – | – | – | – | – | – | –
14 | Cc1cncc(C(=O)N2CCC(n3ncc4nc(NCc5ccc(Cl)c(Cl)c5)[nH]c(=O)c43)CC2)c1.Cl [Compound 261, 5-((3,4-Dichlorobenzyl)amino)-1-(1-(5-methylnicotinoyl)piperidin-4-yl)-1H-pyrazolo[4,3-d]pyrimidin-7(6H)-one hydrochloride] | 4 µg/mL | 4 µg/mL | 4 µg/mL | 2 µg/mL | 4 µg/mL | 1 µg/mL | > 64 µg/mL | >64 µg/mL | – | – | – | – | – | – | – | –

Reference: patent US10723741B1, “DNA polymerase IIIC inhibitors and use thereof” (Acurx Pharmaceuticals, LLC, priority 2018, dated 2020)
